From patent US20050020542A1, “Method of modulating sodium ion absorption in epithelial cells” (priority 2001, published 2005)

Legend:
human CF nasal epithelia = test: Blue Dextran volume transport assay (fluid absorption); type: cell-based; conditions: for inhibition of fluid absorption, dose response: Blue Dextran Assay, 18 hrs apical exposure
Excerpt: In normal human airway epithelia, Na^+ and Cl^− currents (CFTR and Ca^2+-activated Cl^− currents) contribute to airway surface liquid (ASL) fluid volume regulation depending on signaling equilibria. In contrast, in human CF airway epithelia, Na^+ currents through ENaC dominate basal ASL volume regulation accompanied by a relatively minor contribution through Ca^2+-activated Cl^− currents. The combination of enhanced ENaC currents and transient Ca^2+-activated Cl^− currents in CF result in an inadequate hydration of the ASL and reduction of mucociliary clearance. Since INO-E2 reduces Na^+ transport through ENaC, we hypothesized that INO-E2 would have a functional effect, similar to amiloride, and inhibit fluid absorption. To test this hypothesis, we exposed well differentiated monolayer cultures of CF nasal epithelia to an apically applied buffer containing INO-E2 and a known concentration of the non-permeable molecule Blue Dextran (BD). The resulting reduction in the ability of these monolayers to concentrate BD was taken as a functional indicator of INO-E2's involvement in the inhibition of ENaC.
HEPES Modified Ringer's Buffer (HMRB) was used for these assays. HMRB was sterilized by positive pressure filtration through a 0.2 um syringe tip filter (Gelman acrodisc). The BD stock solution was aseptically prepared with sterile buffer (2 mg BD/ml buffer). Compounds to be tested were solubilized in sterile HMRB containing 1 μM BD (final concentration of vehicle is 0.1% (1:1, DMSO+DMSO containing 5% pluronic-F127). […] A standard concentration curve was obtained by determining the optical densities of a serial dilution of 10 μM Blue Dextran in HMRB placed in a Falcon 3027 96-well plate. The optical density of BD in the solution was obtained by analysis at 660 nm in a Packard Spectracount. Standards and samples were analyzed on the same plate. 50 μl volumes were used for all samples and standards. The [BD] of the samples was determined by extrapolation from the standard curve using the Packard I-Smart software. The increase in [BD] from the starting value of 1 μM was taken to be an indication of the magnitude of volume absorption occurring across the monolayer. The rate of absorption was calculated by dividing the change in volume by the duration of the experiment. This value was normalized to a surface area of 1 cm^2, to give μl·cm^2−1·hr^−1. To address evaporative loss, which would appear in the data as artificially high absorptive rates, dummy membranes were constructed by attaching a thin Sylgard sheet to snapwells/transwells with silicon sealant. These dummy membranes were used in parallel with the epithelial monolayers to assess evaporative loss for each experiment.

[1] = test system: calcium-activated Cl- channel; test: Perforated patch whole cell recording of Cl- current; type: cell-based, human
Method: In FIGS. 4A and 4B, the response to 10 μM INO-E2 is contrasted with the response to ATP.

CCCC(=O)OC1C(OC(=O)CCC)C(OP(=O)(OCOC(=O)CC)OCOC(=O)CC)C(OP(=O)(OCOC(=O)CC)OCOC(=O)CC)C(OC(=O)CCC)C1OP(=O)(OCOC(=O)CC)OCOC(=O)CC (stereo not shown) [INO-4981, 1,2,5-tri-O-butyryl-myo-inositol 3,4,6-trisphosphate hexakis (propionoxymethyl) ester]
inhibition of fluid absorption, dose response (human CF nasal epithelia): dose dependent inhibition of fluid absorption

CCCC(=O)OC1C(OP(=O)(OCOC(=O)CC)OCOC(=O)CC)C(OC(=O)CCC)C(OP(=O)(OCOC(=O)CC)OCOC(=O)CC)C(OC(=O)CCC)C1OP(=O)(OCOC(=O)CC)OCOC(=O)CC (stereo not shown) [INO-4992, 2,4,6-tri-O-butyryl-myo-inositol 1,3,5-trisphosphate hexakis (propionoxymethyl) ester]
potency on fluid absorption relative to 100 μM amiloride (human CF nasal epithelia; 5 uM): nearly as potent as 100 μM amiloride | inhibition of fluid absorption, dose response (human CF nasal epithelia): dose dependent inhibition of fluid absorption

CCCCCCCCOC1C(OC(=O)CCC)C(OP(=O)(OCOC(=O)CC)OCOC(=O)CC)C(OP(=O)(OCOC(=O)CC)OCOC(=O)CC)C(OP(=O)(OCOC(=O)CC)OCOC(=O)CC)C1OP(=O)(OCOC(=O)CC)OCOC(=O)CC (stereo not shown) [INO-4987, 2-O-butyryl-3-O-octyl-myo-inositol 1,4,5,6-tetrakisphosphate octakis (propionoxymethyl) ester]
inhibition of fluid absorption, dose response (human CF nasal epithelia): dose dependent inhibition of fluid absorption

CCC(=O)OCOP(=O)(OCOC(=O)CC)OC1C2OC3(CC4CCC3(C)C4(C)C)OC2C(OP(=O)(OCOC(=O)CC)OCOC(=O)CC)C(OP(=O)(OCOC(=O)CC)OCOC(=O)CC)C1OP(=O)(OCOC(=O)CC)OCOC(=O)CC (stereo not shown) [INO-4996, 1,2-camphanylidene-myo-inositol 3,4,5,6-tetrakisphosphate octakis (propionoxymethyl) ester]
inhibition of fluid absorption, dose response (human CF nasal epithelia): dose dependent inhibition of fluid absorption

CCC(=O)OCOP(=O)(OCOC(=O)CC)OC1C2OC3(CC4CCC3(C)C4(C)C)OC2C(OP(=O)(OCOC(=O)CC)OCOC(=O)CC)C(OP(=O)(OCOC(=O)CC)OCOC(=O)CC)C1OP(=O)(OCOC(=O)CC)OCOC(=O)CC (stereo not shown) [INO-4984, 2,3-camphanylidene-myo-inositol 1,4,5,6-tetrakisphosphate octakis (propionoxymethyl) ester]
potency on fluid absorption relative to 100 μM amiloride (human CF nasal epithelia; 100 μM): more potent than 100 μM amiloride | inhibition of fluid absorption, dose response (human CF nasal epithelia): dose dependent inhibition of fluid absorption

O=C(O)c1cccnc1Nc1cccc(C(F)(F)F)c1 [niflumic acid, reference compound]
block of INO-E2 mediated whole cell current ([1]; 100 μM): completely blocked

CCCC(=O)OC1C(OP(=O)(OCOC(=O)CC)OCOC(=O)CC)C(OC(=O)CCC)C(OP(=O)(OCOC(=O)CC)OCOC(=O)CC)C(OP(=O)(OCOC(=O)CC)OCOC(=O)CC)C1OP(=O)(OCOC(=O)CC)OCOC(=O)CC (stereo not shown) [INO-230, 2,6-Di-O-butyryl-myo-inositol 1,3,4,5-tetrakisphosphate octakis(propionoxymethyl) ester]
inhibition of fluid absorption 42 hrs after exposure (human CF nasal epithelia; 10 μM, 2 hr exposure, measured 42 hrs after): significantly inhibits | change of potency on fluid absorption with repeat administration (human CF nasal epithelia; 2 hours each day for 8 days at 0.1 μM or 1 μM, n=6): enhancement of compound potency | inhibition of fluid absorption, dose response (human CF nasal epithelia): dose dependent inhibition of fluid absorption | relative potency on fluid absorption after pulsed exposure (human CF nasal epithelia; INO-230 vs INO-E2): more potent than INO-E2 | duration of effect on fluid secretion following a brief (pulsed) exposure (human CF nasal epithelia; pulsed exposure, FIG. 17): prolonged effects | potency of inhibition of fluid absorption on repeated exposure (human CF nasal epithelia; repeated apical low doses over 96-192 hours, FIG. 17): nanomolar range

CCCC(=O)OC1C(OC(=O)CCC)C(OP(=O)(OCOC(=O)CC)OCOC(=O)CC)C(OP(=O)(OCOC(=O)CC)OCOC(=O)CC)C(OC(=O)CCC)C1OP(=O)(OCOC(=O)CC)OCOC(=O)CC (stereo not shown) [INO-4982, 2,3,5-tri-O-butyryl-myo-inositol 1,4,6-trisphosphate hexakis (propionoxymethyl) ester]
inhibition of fluid absorption, dose response (human CF nasal epithelia): dose dependent inhibition of fluid absorption

Nc1ncnc2c1ncn2[C@@H]1O[C@H](COP(=O)(O)OP(=O)(O)OP(=O)(O)O)[C@@H](O)[C@H]1O [ATP, adenosine triphosphate, reference compound]
further increase in whole cell chloride current after INO-E2 ([1]; ATP contrasted with 10 μM INO-E2): no further increase

CCCC(=O)OC1C(OCCCc2ccccc2)C(OP(=O)(OCOC(=O)CC)OCOC(=O)CC)C(OP(=O)(OCOC(=O)CC)OCOC(=O)CC)C(OP(=O)(OCOC(=O)CC)OCOC(=O)CC)C1OP(=O)(OCOC(=O)CC)OCOC(=O)CC (stereo not shown) [INO-4997, 2-O-butyryl-1-O-(3-phenylpropyl)-myo-inositol 3,4,5,6-tetrakis-phosphate octakis (propionoxymethyl) ester]
activity on fluid absorption as share of activity of 100 μM amiloride (human CF nasal epithelia; 1 μM): 50% | inhibition of fluid absorption, dose response (human CF nasal epithelia): dose dependent inhibition of fluid absorption

N=C(N)NC(=O)c1nc(Cl)c(N)nc1N [amiloride, reference compound]
inhibition of fluid absorption, dose response (human CF nasal epithelia): inhibited fluid absorption measured by the Blue Dextran assay in a dose dependent fashion
